Experimental data reported in PubChem BioAssay AID1963962 (Molecular Pharmacology Branch, DTP, NCI, 2024).
Several values for one entry are separate records, joined by “and”; a condition that tells them apart may be missing. Identical values can stand only once.

System: 967376-340-R-J2-PDC multicell spheroid viability
Test: Anticancer human tumor 967376-340-R-J2-PDC patient-derived colon adenocarcinoma cell line growth inhibition [PI3K]
Conditions: for viability, T/C: stronger effect = lower value
Source text: Combinatorial screen of targeted agents with the PI3K inhibitors inavolisib, alpelisib, duvelisib, and copanlisib in multi-cell type tumor spheroids
A high-throughput screen of multi-cell type tumor spheroids was designed to identify active combinations of targeted small molecules and PI3K pathway inhibitors. Complex spheroids include a stromal component modeled by human endothelial cells (HUVEC) and fibroblasts modeled by human mesenchymal stem cells (MSCs). The concentration ranges selected for each drug and investigational agent were based upon clinically achievable concentrations if the clinical Cmax of the agent was known.
Compounds. The drugs and investigational agents: inavolisib (NSC800729), alpelisib (NSC765974), duvelisib (NSC772469), copanlisib (NSC816437), ipatasertib (NSC767898), afuresertib (NSC778305), talazoparib (NSC767125), sapanisertib (NSC764658), selumetinib (NSC741078), tovorafenib (DAY101, NSC766906), vemurafenib (NSC761431), ravoxertinib (NSC781343), sotorasib (NSC818433), MRTX1133 (NSC 836407), abemaciclib (NSC 768073), palbociclib (NSC758247), venetoclax (NSC 766270), SY5609 (NSC837396), enzalutamide (NSC755605), and darolutamide (NSC825331), were obtained from the National Cancer Institute (NCI) Developmental Therapeutics Program Chemical Repository. The FDA-approved anticancer drug set is available from the NCI Developmental Therapeutics Program. […] The stock solutions were prepared in dimethyl sulfoxide (DMSO, Sigma-Aldrich, St. Louis, MO, cat. D2650) at 800-fold the tested concentration and stored at -70 degrees C prior to their use. All drugs and investigational agents were tested over a range starting from a high concentration at or near the clinical Cmax and decreasing in half-log increments. If the clinical Cmax for an agent had not been determined, the highest concentration tested was 10 microM.
Cell Culture. All cells were maintained in an incubator at 37 degrees C and 5% CO2 with 95% humidity. The PDC lines were cultured according to standard operating procedures established by the NCI PDMR (https://pdmr.cancer.gov/sops/default.htm). All PDCs were thawed and cultured in Matrigel-coated flasks prepared with a working solution of 1X Ham's F-12 nutrient mix, without supplementation (Invitrogen, Waltham, MA, cat. 11765054), 100 U/mL penicillin-streptomycin (Invitrogen, cat. 15140122), and 2.5% Matrigel (Corning Inc., Corning, NY, cat. 354248) for the first three passages. The 354836-022-R-J1-PDC, 475296-252-R-J1-PDC, and 997726-040-R-J2-PDC lines were cultured in 6A media, which includes advanced DMEM/F-12 (Thermo Fisher Scientific, cat. 12634028), 10 mM HEPES (Thermo Fisher Scientific, cat. 15630080), 1X GlutaMAX supplement (Thermo Fisher Scientific, cat. 35050061), 0.1 mg/mL primocin (InvivoGen, San Diego, CA, cat. ant-pm-2), 10% defined fetal bovine serum, heat inactivated (HyClone Laboratories Inc., Logan, UT, cat. SH30070.03HI), 50% L-WRN conditioned media (ATCC, cat. CRL-3276), 1.25 mM N-Acetyl-L-cysteine (Sigma-Aldrich, cat. A9165), 10 mM nicotinamide (Sigma-Aldrich, cat. N0636), 1X B-27 supplement (Thermo Fisher Scientific, cat. 17504044), 1X N-2 supplement (Thermo Fisher Scientific, cat. 17502048), and 10 microM Y-27632 dihydrochloride (Tocris Bioscience, Bristol, United Kingdom, cat. 1254). The 624824-186-R-J2-PDC line was cultured in 6C/Colon 1B media, which includes all 6A media components plus 50 ng/mL human EGF recombinant protein (Thermo Fisher Scientific, cat. PHG0311). […]

[1] = compound alone, run of 06/13/2023
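Further: spheroids exposed to agents for 7 days before read-out.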
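Wherever viability, T/C is given: luminescence used as surrogate of cell viability.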

Structure (SMILES) | IC50 (curve of compound) | IC50 [1] | viability, T/C (compound 0.0316 µM) | viability, T/C (compound 0.1 µM) | viability, T/C (compound 3.16 µM) | viability, T/C (compound 0.316 µM) | viability, T/C (compound 1 µM) | viability, T/C (compound 10 µM) | viability, T/C (compound 0.000316 µM) | viability, T/C (compound 0.001 µM) | viability, T/C (compound 0.00316 µM) | viability, T/C (compound 0.01 µM) | viability, T/C (compound 0.00949 µM) | viability, T/C (compound 0.03 µM) | viability, T/C (compound 0.0949 µM)
C#Cc1c(F)ccc2cc(O)cc(-c3ncc4c(N5CC6CCC(C5)N6)nc(OCC56CCCN5CC(F)C6)nc4c3F)c12 (stereo unspecified) | > 10 µM | – | 106% [middle of 4 runs] | 109% and 101% (2×) and 92.1% | 91.7% [middle of 4 runs] | – | – | – | – | – | – | – | – | – | –
C=CC(=O)N1CCN(c2nc(=O)n(-c3c(C)ccnc3C(C)C)c3nc(-c4c(O)cccc4F)c(F)cc23)C(C)C1 (stereo unspecified) | > 10 µM | – | 106% and 98.1% and 85.1% | 87.2% and 75.8% and 115% | 119% and 123% and 101% | 106% and 107% and 86.6% | 97.1% and 124% and 96.3% | 112% and 107% and 119% | – | – | – | – | – | – | –
CC(=O)c1c(C)c2cnc(Nc3ccc(N4CCNCC4)cn3)nc2n(C2CCCC2)c1=O | > 0.1 µM | – | 118% (2×) and 120% and 81.9% | 79% [middle of 4 runs] | – | – | – | – | 101% [middle of 4 runs] | 95.8% [middle of 4 runs] | 103% [middle of 4 runs] | 98.9% [middle of 4 runs] | – | – | –
CC(C)NCC(C(=O)N1CCN(c2ncnc3c2C(C)CC3O)CC1)c1ccc(Cl)cc1 (stereo unspecified) | > 10 µM | – | 107% [middle of 4 runs] | 91.1% [middle of 4 runs] | 103% [middle of 4 runs] | 90.2% [middle of 4 runs] | 88% [middle of 4 runs] | 83.2% [middle of 4 runs] | – | – | – | – | – | – | –
CC(C)n1nc(-c2ccc3oc(N)nc3c2)c2c(N)ncnc21 | > 0.1 µM and 0.0967 µM | – | 80.7% [middle of 4 runs] | 59.2% [middle of 4 runs] | – | – | – | – | 103% [middle of 4 runs] | – | 101% [middle of 4 runs] | – | – | – | –
CC(Nc1ccc2c(c1)OCCn1cc(N3C(=O)OCC3C(F)F)nc1-2)C(N)=O (stereo unspecified) | – | – | 86.9% [middle of 7 runs] | 81.4% [middle of 7 runs] | – | 67% [middle of 7 runs] | 52.7% [middle of 7 runs] | – | – | – | – | – | – | – | –
CC1(C)CCC(CN2CCN(c3ccc(C(=O)NS(=O)(=O)c4ccc(NCC5CCOCC5)c([N+](=O)[O-])c4)c(Oc4cnc5[nH]ccc5c4)c3)CC2)=C(c2ccc(Cl)cc2)C1 | > 10 µM | – | 99.2% [middle of 4 runs] | 94.1% [middle of 4 runs] | 89.6% [middle of 4 runs] | 88.6% [middle of 4 runs] | 88.1% [middle of 4 runs] | – | – | – | – | – | – | – | –
CC1(C)CCC(Nc2ncc(C(F)(F)F)c(-c3c[nH]c4c(P(C)(C)=O)c(C#N)ccc34)n2)CN1 (stereo unspecified) | 9.93 µM and > 10 µM and 2.51 µM | – | 88.9% [middle of 4 runs] | – | 69.4% [middle of 4 runs] | 73.3% [middle of 4 runs] | 71.2% [middle of 4 runs] | 48.1% [middle of 4 runs] | – | – | – | – | – | – | –
CNC(=O)c1ccc(N2C(=S)N(c3ccc(C#N)c(C(F)(F)F)c3)C(=O)C2(C)C)cc1F | > 10 µM | – | – | 94.8% (2×) and 84.5% and 88.3% | – | 96.1% [middle of 4 runs] | 87.2% [middle of 4 runs] | 102% [middle of 4 runs] | – | – | – | – | – | – | –
COc1c(OCCCN2CCOCC2)ccc2c3n(c(=NC(=O)c4cnc(N)nc4)nc12)CCN3 | – | 212 nM [middle of 8 runs] | 79.9% [middle of 8 runs] | 60.7% [middle of 8 runs] | – | 47.8% [middle of 8 runs] | 38.5% [middle of 8 runs] | – | – | – | – | 85.7% [middle of 8 runs] | – | – | –
C[C@@H](NC(=O)c1ncnc(N)c1Cl)c1ncc(C(=O)Nc2cc(C(F)(F)F)c(Cl)cn2)s1 | > 10 µM | – | – | 95.8% [middle of 4 runs] | 107% [middle of 4 runs] | 94% [middle of 4 runs] | 110% [middle of 4 runs] | 109% [middle of 4 runs] | – | – | – | – | – | – | –
Cc1nc(NC(=O)N2CCCC2C(N)=O)sc1-c1ccnc(C(C)(C)C(F)(F)F)c1 (stereo unspecified) | – | – | – | 85.3% [middle of 8 runs] | 64.3% [middle of 8 runs] | 80.7% [middle of 8 runs] | 73.6% [middle of 8 runs] | 45.7% [middle of 8 runs] | – | – | – | – | – | – | –
Cn1cnc2c(F)c(Nc3ccc(Br)cc3Cl)c(C(=O)NOCCO)cc21 | – | – | – | – | – | – | – | – | – | – | – | – | 89.9% [middle of 4 runs] | 97.7% [middle of 4 runs] | 87.6% [middle of 4 runs]

Continued, in another order:

IC50 (curve of compound) | IC50 [1] | Structure (SMILES) | viability, T/C (compound 0.0316 µM) | viability, T/C (compound 0.1 µM) | viability, T/C (compound 3.16 µM) | viability, T/C (compound 0.316 µM) | viability, T/C (compound 1 µM) | viability, T/C (compound 10 µM) | viability, T/C (compound 0.000316 µM) | viability, T/C (compound 0.001 µM) | viability, T/C (compound 0.00316 µM) | viability, T/C (compound 0.01 µM) | viability, T/C (compound 0.00949 µM) | viability, T/C (compound 0.03 µM) | viability, T/C (compound 0.0949 µM)
> 10 µM | – | CC(Cn1ccc(-c2ccc(C#N)c(Cl)c2)n1)NC(=O)c1cc(C(C)O)[nH]n1 (stereo unspecified) | 105% [middle of 4 runs] | 99.6% [middle of 4 runs] | 103% [middle of 4 runs] | 101% [middle of 4 runs] | 101% [middle of 4 runs] | – | – | – | – | – | – | – | –
– | > 10 µM | CC(Nc1ncnc2nc[nH]c12)c1cc2cccc(Cl)c2c(=O)n1-c1ccccc1 (stereo unspecified) | 94.5% [middle of 8 runs] | – | – | 89% [middle of 8 runs] | 94.5% [middle of 8 runs] | – | – | – | – | – | – | – | –
> 10 µM and 9.14 µM | – | CCCS(=O)(=O)Nc1ccc(F)c(C(=O)c2c[nH]c3ncc(-c4ccc(Cl)cc4)cc23)c1F | 102% [middle of 4 runs] | 87.8% [middle of 4 runs] | 104% [middle of 4 runs] | 94.6% [middle of 4 runs] | – | 56.4% [middle of 4 runs] | – | – | – | – | – | – | –
> 1 µM | – | CCN1CCN(Cc2ccc(Nc3ncc(F)c(-c4cc(F)c5nc(C)n(C(C)C)c5c4)n3)nc2)CC1 | 94.2% [middle of 4 runs] | 82% [middle of 4 runs] | – | 87% [middle of 4 runs] | 74% [middle of 4 runs] | – | – | – | 110% [middle of 4 runs] | 93.5% [middle of 4 runs] | – | – | –
> 10 µM | – | Cn1ncc(Cl)c1-c1cc(C(=O)NC(CN)Cc2cccc(F)c2)sc1Cl (stereo unspecified) | 107% [middle of 4 runs] | – | 81.3% [middle of 4 runs] | 91.2% [middle of 4 runs] | – | 76.4% [middle of 4 runs] | – | – | – | – | – | – | –
> 10 µM | – | Cn1nccc1Nc1nccc(-c2ccn(C(CO)c3ccc(Cl)c(F)c3)c(=O)c2)n1 (stereo unspecified) | 100% [middle of 4 runs] | 94.5% [middle of 4 runs] | – | 101% (2×) and 95.3% and 76.4% | – | 99.5% [middle of 4 runs] | – | – | – | – | – | – | –
> 0.1 µM | – | Cn1ncnc1[C@H]1c2n[nH]c(=O)c3cc(F)cc(c23)N[C@@H]1c1ccc(F)cc1 | 93.2% and 88.8% and 97.9% | 92.5% and 99.6% and 94.7% | – | – | – | – | 78.6% and 114% and 95.8% | 82.5% and 93.1% and 84.2% | 90.3% and 94.6% and 70.5% | 103% and 104% and 90.4% | – | – | –
